{"source": "patent US8722052B2", "about": "“Vaccinia virus protein A46 peptide and use thereof” (priority 2008, dated 2014)", "key": {"IκBα": {"test_system": "IκBα", "experiment": "LPS-induced IκBα degradation in RAW264.7 cells, immunoblot", "format": "cell-based, murine", "settings": "peptide 4 μM 1 h before 10 ng/ml LPS for 5, 15, 30 or 60 min", "protocol": "FIGS. 25A and B are immunoblots showing the effect of A464 on LPS-induced IκBα degradation in murine RAW264.7 cells. Cells were seeded in 6-well plates at 1.5×10^5 cells/ml 24 hours prior to treatment with peptides. […] Cells were stimulated with 10 ng/ml LPS for a period of 5, 15, 30 or 60 min and then harvested on ice and lysed in 1% NP-40 containing lysis buffer. Lysates then were denatured using 5× sample buffer with DTT and resolved by SDS-PAGE. The proteins were transferred to PVDF membrane and the membrane was immunoblotted for IκBα (A). Equal protein loading was confirmed by re-probing the blot for β-actin (B). The blots shown are representative of two experiments;\nRAW264.7 cells were seeded at a density of 1×10^5 cells/ml in 6 well plates. […] The protein concentration was determined by monitoring the change in the solution absorbance at 280 nm using a spectrophotometer compared to protein standards. […] Thereafter, the membranes were washed, incubated in appropriate secondary antibody and then developed using standard enhanced chemi-luminescence (ECL) reagents.\nTo further assay activation of NFκB, the degradation of its inhibitor IκBα, an event required for the translocation of the NFκB into the nucleus, was measured. […]"}, "IL-12p40": {"test_system": "IL-12p40", "experiment": "LPS-induced serum IL-12p40 in mice, ELISA", "format": "in vivo", "settings": "female BALB/c mice, serum at 4 hours; for serum IL-12p40 level compared with PBS-treated animals: i.v. 1 μg LPS with 3 mg/kg peptide; for inhibition of LPS-induced serum IL-12p40: i.v. single bolus 1 μg LPS with 3 mg/kg peptide", "protocol": "FIG. 30 is a graph showing that A464 inhibits LPS-induced IL-12/23 p40 in vivo. Groups of 5 female BALB/c mice were injected i.v. with a single bolus of one of the following: PBS, 1 μg LPS, 1 μg LPS with 3 mg/kg D-9RN-A464 (SEQ ID NO. 38), 1 μg LPS with 3 mg/kg L-9RN-A464 (SEQ ID NO. 38), or 1 μg LPS with 3 mg/kg L-9RN-A467 (SEQ ID NO. 39). Four hours later, blood was harvested and serum derived. The serum was assayed for IL-12p40 by ELISA. Concentrations are expressed as pg/ml. * p<0.05, *** p<0.001 samples versus LPS. # p<0.01 samples versus PBS.\nCytokine and chemokine production from cells or mouse serum was measured by ELISA using Duoset kits from R&D systems, according to the manufacturer's instructions.\nTo do this we used a well characterised model of Gram negative sepsis, where mice are injected with LPS and serum cytokines are later analysed by ELISA. […] Mice were injected i.v. with LPS alone, or with peptide in the presence of LPS. Four hours later serum IL-12p40 concentrations were measured. […] Thus peptides based on the 464 sequence (SEQ ID No. 4) have efficacy in vivo. Thus peptides comprising the 464 sequence (SEQ ID No.4) can inhibit LPS induced proinflammatory IL-12p40 in vivo."}}, "note": "Entries after “also recorded” stand apart in the source; their conditions may differ. Square brackets hold non-standard residues; d marks the D form. Ends that are not written are not given here.", "data": [{"substance": "KYSFKLILAEYRRRRRRRRR [Peptide A464]", "values": [{"measurement": "effect on LPS-induced IκBα degradation", "setting": "IκBα", "value": "blocked the degradation of IκBα seen at 15 and 30 min"}]}, {"substance": "9RN-A464 (RRRRRRRRRKYSFKLILAEY) [Peptide 9RN-A464]", "values": [{"measurement": "serum IL-12p40 level compared with PBS-treated animals", "setting": "IL-12p40; listed as L-9RN-A464, 3 mg/kg", "value": "not significantly different from mice receiving only PBS; also recorded: not significantly different from the PBS-treated animals"}, {"measurement": "inhibition of LPS-induced serum IL-12p40", "setting": "IL-12p40", "value": "significantly inhibited LPS-induced IL-12p40"}]}, {"substance": "D-9RN-A464 ([dR][dR][dR][dR][dR][dR][dR][dR][dR][dK][dY][dS][dF][dK][dL][dI][dL][dA][dE][dY]) [Peptide D-9RN-A464]", "values": [{"measurement": "serum IL-12p40 level compared with PBS-treated animals", "setting": "IL-12p40; 3 mg/kg", "value": "not significantly different from mice receiving only PBS; also recorded: not significantly different from the PBS-treated animals"}, {"measurement": "inhibition of LPS-induced serum IL-12p40", "setting": "IL-12p40", "value": "significantly inhibited LPS-induced IL-12p40"}]}]}
